Reference: patent US6071884A, “Pharmaceutical compositions and therapeutic methods” (Kirin Beer Kabushiki Kaisha, priority 1992, dated 2000)

How the values were obtained:
[1] = test system: marrow cells (mononuclear cell fraction); test: Proliferation-stimulating effect on marrow cell of mouse (3H-TdR uptake); format: cell-based, mouse (BALB/c); conditions: percentage of control, 72 h; for activity at 0.1 µg/mL: 10^-1 μg/ml; for activity at 0.01 µg/mL: 10^-2 μg/ml; for activity at 0.001 µg/mL: 10^-3 μg/ml
In short: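 Mononuclear marrow cell fraction from 7-week-old female BALB/c mouse thigh bone, 1.5×10^6 cells/ml in 10% FCS RPMI 1640, cultured with test sample 72 h at 37° C. ³H-thymidine (0.5 μCi/well) then added for 8 h; nuclear ³H-TdR uptake counted by liquid scintillation.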

[2] = Life-span-increasing effect on irradiation of a lethal dose of radiation; format: in vivo, mouse (BDF1); conditions: 10 mice/group, 9 Gy X-ray, 0.1 mg/kg i.v. days 0, 4, 8
Description: Pharmacological Test 4: Life-Span-Increasing Effect on Irradiation of a Lethal Dose of Radiation
An experiment was carried out by using 6 week old female BDF1 mice purchased from Japan SLC Co., Ltd., with 10 mice made one group.
The entire bodies of the entire body of the mice were irradiated with 9 Gy of X-rays by using a Hitachi X-ray irradiator (MBR-1520R), and the day on which the X-ray was irradiated was referred to as "day 0".

blood platelets [3] = test: Thrombocytopenia-inhibiting effect in X-ray-irradiated mice; format: in vivo, mouse (BDF1); conditions: 10 days after 5 Gy X-ray; 0.1 mg/kg i.v. within 2 h; mean ± SD; vehicle per series 10.3, 6.8, 6.7; non-treatment 68.2, 96.9, 73.0
In short: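 Female BDF1 mice, 6 weeks old, six per group, given 5 Gy whole-body X-ray, then 0.1 mg/kg i.v. via tail vein within 2 hours. Platelets counted by hemocytometer in fundus-vein blood 10 days later; untreated and vehicle groups run alongside.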

blood platelets [4] = test: Blood-platelet-increasing effect upon normal mouse; format: in vivo, mouse (BDF1); conditions: normal mice; 6 days after 0.1 mg/kg i.v.; mean ± SD; vehicle per series 58.2, 63.0, 71.1
In short: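 Female BDF1 mice, 6 weeks old (5 per group), received test sample at 0.1 mg/kg into the caudal vein. Six days later, fundus-vein blood was taken and platelets counted on a multi-channel hemocytometer, compared against vehicle-treated animals.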

Acute toxicity = format: in vivo; conditions: 7 days
Description: Test Example 2: Acute Toxicity
0.1, 1.0 or 10 mg/kg of Compound 5 or 33 was intravenously administered to Crj:CD rats (male, 5 weeks old), 6 rats in one group. 7 days after the administration, a toxicity test was carried out.

[5] = test system: mononuclear cell fraction of human umbilical cord blood; test: Proliferation-stimulating effect on mononuclear cell fraction of human umbilical cord blood (3H-TdR uptake); format: cell-based; conditions: 96 h, percentage of control, 4 days; for activity at 0.1 µg/mL: 10^-1 μg/ml; for activity at 0.01 µg/mL: 10^-2 μg/ml; for activity at 0.001 µg/mL: 10^-3 μg/ml
From the text: Pharmacological Test 3: Proliferation-Stimulating Effect on Mononuclear Cell Fraction of Human Umbilical Cord Blood
It is extremely difficult to obtain human marrow cells. In addition, human umbilical cord blood contains stem cells (Nakahata, T. & Ogwa, M., J. Clin. Inveet. 70, 1324-1328 (1982)), so that it can be a good source of hematopoietic stem/progenitor cell supply (H. E. Broxneyer et al, Proc. Natl. Acad. Sci. USA, 86, 3828-3832 (1989)). For these reasons, the effect on human was examined by using, instead of human marrow cells, human umbilical cord blood.
To human umbilical cord blood was added an equal amount of RPMI 1640. This was placed on a Lymphoprep and centrifugal. The mononuclear cell fraction (MNF) thus obtained was used in the following experiment.
The concentration of the MNF was adjusted to 1×10^6 cells/ml by using an RPMI 1640 added with 10% auto-blood plasma as a culture medium. 10 μl/well of a sample with a predetermined concentration and 100 μl/well of the above-prepared MNF were placed on a round-bottomed 96 well plate and incubated under the conditions of 37° C. and 5% CO2 for 4 days. Thereafter, 0.5 μCi/well of ^3 H-TdR was added. After 8 hour incubation, the cells were harvested, and the amount of the 3H-TdR taken in the nuclei was measured by a liquid scintillation counter.

[6] = day 10, controls per series 10, 10, 10, 10, 10, 8
[7] = day 15, controls per series 8, 9, 5, 5, 7, 1
[8] = day 20, controls per series 4, 5, 1, 2, 3, 0
[9] = day 25, controls per series 3, 3, 0, 0, 2, 0
[10] = day 30, controls per series 1, 1, 0, 0, 0, 0

| SMILES | activity at 0.1 µg/mL [1] | activity at 0.01 µg/mL [1] | activity at 0.001 µg/mL [1] | Number of Surviving Mice [2, 6] | Number of Surviving Mice [2, 7] | Number of Surviving Mice [2, 8] | Number of Surviving Mice [2, 9] | Number of Surviving Mice [2, 10] | Number of Surviving Mice ([2]; day 35, all controls 0) | Number of Surviving Mice ([2]; day 40, all controls 0) | Number of Blood Platelets (blood platelets [3]) | Number of Blood Platelets (blood platelets [4]) | death of rats (Acute toxicity; 10 mg/kg i.v.) | post-mortem examination (Acute toxicity; i.v. 0.1, 1.0 or 10 mg/kg) | activity at 1 µg/mL ([1]; 10^0 μg/ml) | activity at 0.1 µg/mL [5] | activity at 0.01 µg/mL [5] | activity at 0.001 µg/mL [5] |
| --- | --- | --- | --- | --- | --- | --- | --- | --- | --- | --- | --- | --- | --- | --- | --- | --- | --- | --- |
| CCCCCCCCCCCCCCC[C@@H](O)[C@H](CO[C@H]1O[C@H](CO)[C@H](O)[C@H](O)[C@H]1O)NC(=O)CCCCCCCCCCCCC [Compound 5, (2S,3R)-1-(α-D-galactopyranosyloxy)-2-tetradecanoylamino-3-octadecanol] | 377% | 261% | 234% | 10 mice | 9 mice | 9 mice | 9 mice | 9 mice | 9 mice | 9 mice | 20.3 ± 4.5 × 10^4 /μl | 106.0 ± 9.0 × 10^4 /μl | the rats did not die | no abnormality was found |  |  |  |  |
| CCCCCCCCCCCCCCCCCCCCCC[C@@H](O)C(=O)N[C@@H](CO[C@H]1O[C@H](CO)[C@H](O)[C@H](O)[C@H]1O)[C@H](O)[C@H](O)CCCCCCCCCCCCCC [Compound 21, (2S,3S,4R)-1-(α-D-galactopyranosyloxy) -2-[(R) -2-hydroxytetracosanoylamino]-3,4-octadecanediol] | 244% | 96% | 84% | 10 mice | 10 mice | 10 mice | 10 mice | 10 mice | 10 mice | 10 mice | 22.7 ± 3.7 × 10^4 /μl | 94.8 ± 7.7 × 10^4 /μl |  |  | 799% | 552% | 530% | 305% |
| CCCCCCCCCCCCCCCCCCCCCC[C@@H](O)C(=O)N[C@@H](CO[C@H]1O[C@H](CO)[C@H](O)[C@H](O)[C@H]1O)[C@H](O)CCCCCCCCCCCCCCC [Compound 14, (2S,3R)-1-(α-D-galactopyranosyloxy)-2-[(R)-2-hydroxytetracosanoylamino]-3-octadecanol] | 511% | 132% | 134% | 10 mice | 10 mice | 10 mice | 9 mice | 9 mice | 9 mice | 9 mice | 22.3 ± 6.6 × 10^4 /μl | 101.6 ± 8.3 × 10^4 /μl |  |  |  | 233% | 141% | 96% |
| CCCCCCCCCCCCCCCCCCCCCC[C@H](O)C(=O)N[C@@H](CO[C@H]1O[C@H](CO)[C@H](O)[C@H](O)[C@H]1O)[C@H](O)[C@H](O)CCCCCCCCCCCCC [Compound 28, (2S,3S,4R)-1-(α-D-galactopyranosyloxy)-2-[(S)-2-hydroxytetracosanoylaminol]-3,4-heptadecanediol] | 192% | 170% | 130% | 10 mice | 10 mice | 10 mice | 8 mice | 8 mice | 8 mice | 8 mice | 20.4 ± 4.5 × 10^4 /μl | 103.6 ± 8.8 × 10^4 /μl |  |  |  | 356% | 331% | 182% |
